Assay results taken from the NIST ThermoML archive (doi:10.1021/acs.jced.7b00107).

Experiment: molar heat capacity at constant pressure
Conditions: 101.33 kPa, Crystal 1

Cl.NC12CC3CC(CC(C3)C1)C2 [1-aminoadamantane hydrochloride]
molar heat capacity at constant pressure [J/K/mol]
Conditions | Small (less than 1 g) adiabatic calorimetry | Small sample (50 mg) DSC
196.3 K | 140.9 | –
197.31 K | 141.5 | –
197.81 K | 141.9 | –
199.31 K | 142.8 | –
199.33 K | 142.9 | –
200 K | 143.3 | –
200.81 K | 143.9 | –
201.34 K | 144.3 | –
202.3 K | 144.9 | –
203.36 K | 145.7 | –
203.8 K | 146.1 | –
205.3 K | 147 | –
205.38 K | 147.1 | –
206.8 K | 148 | –
207.4 K | 148.4 | –
208.29 K | 149 | –
209.42 K | 149.8 | –
209.79 K | 150 | –
210 K | 150.2 | –
211.28 K | 151 | –
211.44 K | 151.2 | –
212.77 K | 152.1 | –
213.46 K | 152.6 | –
214.26 K | 153.1 | –
215.49 K | 154.1 | –
215.75 K | 154.2 | –
217.23 K | 155.3 | –
217.51 K | 155.5 | –
218.71 K | 156.2 | –
219.54 K | 156.9 | –
220 K | 157.3 | –
220.19 K | 157.2 | –
221.56 K | 158.4 | –
221.67 K | 158.4 | –
223.43 K | 159.7 | –
223.59 K | 159.8 | –
225.29 K | 161.1 | –
225.62 K | 161.3 | –
227.06 K | 162.3 | –
227.64 K | 162.8 | –
228.83 K | 163.7 | –
229.67 K | 164.3 | –
230 K | 164.5 | –
230.6 K | 165.1 | –
231.7 K | 165.8 | –
232.37 K | 166.3 | –
233.72 K | 167.3 | –
234.13 K | 167.6 | –
235.75 K | 169 | –
235.89 K | 168.9 | –
237.64 K | 170.4 | –
237.78 K | 170.3 | –
239.4 K | 171.9 | –
239.81 K | 172.1 | –
240 K | 171.8 | –
241.15 K | 173.6 | –
241.84 K | 174.1 | –
242.89 K | 174.2 | –
243.87 K | 174.6 | –
244.64 K | 175.3 | –
245.91 K | 176.1 | –
246.38 K | 176.6 | –
247.94 K | 177.7 | –
248.13 K | 177.9 | –
249.87 K | 179.2 | –
249.97 K | 179.2 | –
250 K | 179.3 | –
251.6 K | 180.5 | –
252 K | 180.7 | –
253.34 K | 181.7 | –
254.03 K | 182.2 | –
255.07 K | 183.1 | –
256.06 K | 183.7 | –
256.8 K | 184.4 | –
258.09 K | 185.3 | –
258.52 K | 185.6 | –
260 K | 186.8 | –
260.12 K | 186.8 | –
260.24 K | 186.9 | –
262.15 K | 188.4 | –
264.19 K | 189.9 | –
266.22 K | 191.4 | –
268.25 K | 193.1 | –
270 K | 194.3 | –
270.28 K | 194.5 | –
272.31 K | 196.1 | –
274.35 K | 197.7 | –
276.38 K | 199.3 | –
278.41 K | 200.9 | –
280 K | 202.1 | –
280.44 K | 202.5 | –
282.47 K | 204 | –
284.51 K | 205.6 | –
286.53 K | 207.1 | –
288.56 K | 208.7 | –
290 K | 209.9 | –
290.6 K | 210.3 | –
292.63 K | 211.9 | –
294.66 K | 213.5 | –
296.69 K | 215 | –
298.15 K | 216.2 | –
298.72 K | 216.6 | –
300 K | 217.6 | –
300.75 K | 218.1 | –
302.78 K | 219.8 | –
304.81 K | 221.3 | –
306.84 K | 222.9 | –
308.88 K | 224.5 | –
310 K | 225.3 | 222.6
310.91 K | 226 | –
311.7 K | – | 223.7
312.94 K | 227.6 | –
313.3 K | – | 224.7
314.98 K | 229.1 | –
315 K | – | 226.1
316.6 K | – | 227.2
317.01 K | 230.8 | –
318.2 K | – | 228.5
319.04 K | 232.3 | –
319.9 K | – | 229.5
320 K | 233 | –
321.08 K | 233.9 | –
321.5 K | – | 230.9
323.1 K | – | 231.9
323.11 K | 235.4 | –
324.8 K | – | 233.5
325.15 K | 237 | –
326.4 K | – | 234.8
327.19 K | 238.6 | –
328 K | – | 236
329.23 K | 240.1 | –
329.6 K | – | 237.3
330 K | 240.7 | –
331.2 K | – | 238.4
331.26 K | 241.7 | –
332.8 K | – | 239.6
333.3 K | 243.3 | –
334.4 K | – | 241.2
335.34 K | 244.9 | –
336 K | – | 242.3
337.38 K | 246.5 | –
337.6 K | – | 243.3
339.3 K | – | 244.7
339.42 K | 248.1 | –
340 K | 248.6 | –
340.9 K | – | 246.2
341.46 K | 249.6 | –
342.5 K | – | 247.4
343.5 K | 251.3 | –
344.1 K | – | 248.6
345.54 K | 252.9 | –
345.7 K | – | 249.8
347.2 K | – | 251.1
347.58 K | 254.6 | –
348.8 K | – | 252.4
349.62 K | 256.2 | –
350 K | 256.5 | –
350.4 K | – | 253.7
351.66 K | 257.8 | –
352 K | – | 254.9
353.6 K | – | 256.1
353.7 K | 259.4 | –
355.2 K | – | 257.6
355.74 K | 261.1 | –
356.8 K | – | 259
357.78 K | 262.8 | –
358.4 K | – | 260.3
359.82 K | 264.4 | –
360 K | 264.5 | 261.8
361.6 K | – | 263.1
361.86 K | 266 | –
363.2 K | – | 264.7
363.9 K | 267.5 | –
364.8 K | – | 265.8
365.94 K | 269.3 | –
366.3 K | – | 267.1
367.9 K | – | 268.2
367.98 K | 270.9 | –
369.5 K | – | 269.4
370 K | 272.5 | –
371.1 K | – | 270.6
372.7 K | – | 271.9
374.3 K | – | 273.2
375.9 K | – | 274.4
377.4 K | – | 275.5
379 K | – | 276.5
380 K | – | 280
380.6 K | – | 277.8
382.2 K | – | 279
383.8 K | – | 280.3
385.4 K | – | 281.2
386.9 K | – | 282.7
388.5 K | – | 284.1
390 K | – | 288
390.1 K | – | 285
391.7 K | – | 286.5
393.3 K | – | 287.4
394.9 K | – | 288.7
396.4 K | – | 289.9
398 K | – | 291.3
399.6 K | – | 292.6
400 K | – | 296
401.2 K | – | 293.6
402.8 K | – | 294.7
404.4 K | – | 296.2
405.9 K | – | 297.3
407.5 K | – | 298.6
409.1 K | – | 299.8
410 K | – | 304
410.7 K | – | 301
412.3 K | – | 302.3
413.8 K | – | 303.9
415.4 K | – | 305.3
417 K | – | 306.5
418.6 K | – | 307.7
420 K | – | 312
420.2 K | – | 308.7
421.7 K | – | 309.9
423.3 K | – | 311.5
424.9 K | – | 312.6
426.5 K | – | 313.6
428.1 K | – | 314.7
429.7 K | – | 315.8
430 K | – | 319
431.2 K | – | 317
432.8 K | – | 318.4
434.4 K | – | 319.9
436 K | – | 321
437.6 K | – | 322.3
439.1 K | – | 323.5
440 K | – | 327
440.7 K | – | 324.8
442.3 K | – | 326
443.9 K | – | 326.9
445.5 K | – | 328
447 K | – | 329.5
448.6 K | – | 330.4
450 K | – | 334
450.2 K | – | 331.6
451.8 K | – | 332.9
453.4 K | – | 334.4
454.9 K | – | 335.7
456.5 K | – | 336.7
458.1 K | – | 337.3
459.7 K | – | 338.7
460 K | – | 342
461.3 K | – | 339.3
462.8 K | – | 340.6
464.4 K | – | 341.7
466 K | – | 343
467.6 K | – | 344.1
469.2 K | – | 345
470 K | – | 349
470.7 K | – | 346.4
